# Assay results from US20050101482A1, “Novel adsorbent” (priority 2001, published 2005).
# How the values were obtained:
# [1] = Concentration of Erythromycin in the blood of rabbits; type: in vivo; settings: rabbit, 1.5 hours after the oral ingestion of 40 mg per head, groups taking and not taking the adsorbent alike
# Method: The symptom of diarrhea was manifested in 100% of the rabbits of the group not using the adsorbent and 0% of the rabbits of the group using the adsorbent. At this time, in the group of rabbits taking the adsorbent and the group of rabbits not taking the adsorbent alike, the concentration of Erythromycin in the blood measured 1.5 hours after the oral ingestion was invariably in the range of 0.12-0.13 μg/ml.
# [2] = orally ingested to a rabbit; cited from earlier work
# [3] = in human beings; cited from earlier work
# [4] = orally ingested into human beings; cited from earlier work
structure (smiles),measurement,setting,value
CC[C@H]1OC(=O)[C@H](C)[C@@H](O[C@H]2C[C@@](C)(OC)[C@@H](O)[C@H](C)O2)[C@H](C)[C@@H](O[C@@H]2O[C@H](C)C[C@H](N(C)C)[C@H]2O)[C@](C)(O)C[C@@H](C)C(=O)[C@H](C)[C@@H](O)[C@]1(C)O [Erythromycin],concentration at 1.5 h,[1],120 to 130 ng/mL
C[C@H]1CC[C@@H]2[C@@H](C)[C@H]3[C@H](C[C@H]4[C@@H]5CC=C6C[C@@H](O[C@@H]7O[C@H](CO)[C@H](O)[C@H](O[C@@H]8O[C@H](CO)[C@@H](O)[C@H](O)[C@H]8O)[C@H]7O[C@H]7O[C@@H](C)[C@H](O)[C@@H](O)[C@H]7O)CC[C@]6(C)[C@H]5CC[C@]34C)N2C1 [Solanine],LD50,[2],450 mg/kg
same,concentration causing poisoning,[3],0.2 to 0.4 g
OCCOCCO [Diethylene glycol],toxicity LD50,[4],1000 mg/kg
